Results: US4507287A, “Preparation and method for the treatment of acne” (priority 1983, dated 1985)
Where two headings read alike, the source gives them in different places.

Tests used:
[1] = test system: acne; assay: topical treatment of acne with antibiotics mixed with DMSO; format: in vivo; conditions: antibiotic mixed with DMSO
From the text: These antibiotics including, amikacin, cefamandole, cefoxitin, erythromycin, tetracycline, tobramycin, vancomycin, lincomycin, and carbenicillin.

[2] = test system: acne; conditions: oral, long-term; Plewig et al.; cited from earlier work
[3] = cited from earlier work
[4] = test system: rats; assay: acute oral toxicity of ara-A in rats; format: in vivo; conditions: extrapolated from LD50 in rats and mice
Description: Regarding toxicity or other side effects on the patient of the proposed preparation, extensive pharmacologic and toxicity studies on ara-A have been carried out in animals and in man. […] This dose level indicates a low order of toxicity to a single parenteral dose. The acute oral LD50 in both rats and mice is greater than […]. This amount would be equivalent to more than […] (one and two thirds pound) in an average 150 pound person. […] In the form used in the present invention and with treatment by topical application, it is highly unlikely that any toxic side effects of ara-A would be observed.

[5] = solubility of ara-A in DMSO/water versus water; format: physicochemical; conditions: DMSO in the solvent carrier medium
[6] = test system: DNA polymerase; conditions: suppresses viral replication; cited from earlier work
[7] = recovery of unchanged ara-A from the DMSO and water solution; format: physicochemical; conditions: under the conditions of preparation
Description: There are no special procedures involved in preparing of the preparation for the treatment of acne of the present invention. The demineralized water and DMSO can be mixed first, and the ara-A (and benzocaine if used) is then dissolved in the DMSO and water solution. The ara-A can be added to the pure DMSO, and water can be added last. When water and DMSO are mixed, the solution becomes warm because there is a positive heat of solution. […] Ara-A can be recovered from the DMSO and water solution virtually 100% as unchanged ara-A.

[8] = intravenous form; cited from earlier work
[9] = test system: DNA viruses; conditions: in vitro and in vivo (animal models or man), cited from earlier work
[10] = test system: normal skin; conditions: in vivo
Description: This rash, however, usually disappears shortly thereafter with no ill effects. Annals of the New York Academy of Sciences, Vol. […], (1967). S. W. Jacob, E. E. Rosenbaum, and D. C. Wood, eds., Vol. 1, Dimethyl Sulfoxide, 99 (1971), and Vol. 243, Annals of the New York Academy of Sciences, (1975). In the present invention DMSO is diluted to 70% with demineralized water before ara-A is added.

[11] = animals and humans; cited from earlier work
[12] = test system: normal skin; conditions: applied to skin; cited from earlier work
[13] = in vivo
From the text: Also one to two percent high viscosity carboxymethylcellulose, Carbopol (manufactured by Firestone Company, Akron, Ohio), or other suitable gelling agent might be added to the mixture to provide a gel which may be preferred for topical application.

[14] = test system: acne lesions; assay: topical treatment of acne with ara-A and DMSO; format: in vivo; conditions: benzocaine added to ara-A/DMSO medication
From the text: Treatment of acne with the disclosed preparation should begin as soon as the first sign of the lesion (pimple) is apparent. […] The medication should be applied every two to four hours for the first two days during waking hours.

CC[C@H]1OC(=O)[C@H](C)[C@@H](O[C@H]2C[C@@](C)(OC)[C@@H](O)[C@H](C)O2)[C@H](C)[C@@H](O[C@@H]2O[C@H](C)C[C@H](N(C)C)[C@H]2O)[C@](C)(O)C[C@@H](C)C(=O)[C@H](C)[C@@H](O)[C@]1(C)O [erythromycin]
effectiveness in topical treatment of acne [1]: effective in the topical treatment of acne
help in the management of acne [2]: help in the management of acne

CCC[C@@H]1C[C@@H](C(=O)N[C@@H]([C@H]2O[C@H](SC)[C@H](O)[C@@H](O)[C@H]2O)[C@@H](C)O)N(C)C1 [lincomycin]
effectiveness in topical treatment of acne [1]: effective in the topical treatment of acne
help in the management of acne [2]: help in the management of acne

CO[C@@]1(NC(=O)Cc2cccs2)C(=O)N2C(C(=O)O)=C(COC(N)=O)CS[C@@H]21 [cefoxitin]
effectiveness in topical treatment of acne [1]: effective in the topical treatment of acne

NC[C@H]1O[C@H](O[C@H]2[C@H](O)[C@@H](O[C@H]3O[C@H](CO)[C@@H](O)[C@H](N)[C@H]3O)[C@H](N)C[C@@H]2N)[C@H](N)C[C@@H]1O [tobramycin]
effectiveness in topical treatment of acne [1]: effective in the topical treatment of acne

CN[C@H](CC(C)C)C(=O)N[C@H]1C(=O)N[C@@H](CC(N)=O)C(=O)N[C@H]2C(=O)N[C@H]3C(=O)N[C@H](C(=O)N[C@H](C(=O)O)c4cc(O)cc(O)c4-c4cc3ccc4O)[C@H](O)c3ccc(c(Cl)c3)Oc3cc2cc(c3O[C@@H]2O[C@H](CO)[C@@H](O)[C@H](O)[C@H]2O[C@H]2C[C@](C)(N)[C@H](O)[C@H](C)O2)Oc2ccc(cc2Cl)[C@H]1O [vancomycin]
effectiveness in topical treatment of acne [1]: effective in the topical treatment of acne

CC1(C)S[C@@H]2[C@H](NC(=O)C(C(=O)O)c3ccccc3)C(=O)N2[C@H]1C(=O)O (some centres unmarked) [carbenicillin]
effectiveness in topical treatment of acne [1]: effective in the topical treatment of acne

NCC[C@H](O)C(=O)N[C@@H]1C[C@H](N)[C@@H](O[C@H]2O[C@H](CN)[C@@H](O)[C@H](O)[C@H]2O)[C@H](O)[C@H]1O[C@H]1O[C@H](CO)[C@@H](O)[C@H](N)[C@H]1O [amikacin]
effectiveness in topical treatment of acne [1]: effective in the topical treatment of acne

Nc1ncnc2c1ncn2[C@@H]1O[C@H](CO)[C@@H](O)[C@@H]1O [ara-A, adenine-9- -D-arabinofuranoside]
toxicity through topical application [3]: not possible to demonstrate toxicity
redness and irritation after topical application ([3]; in some cases): redness and slight irritation has been noted
amount equivalent to the acute oral LD50 in an average 150 pound person [4]: more than 750 grams
amount of ara-A dissolved versus DMSO concentration [5]: The higher the concentration of DMSO in the solvent carrier medium, the greater is the amount of ara-A that can be dissolved
inhibition of DNA polymerase [6]: inhibits the enzyme DNA polymerase
chemical reaction between ara-A and DMSO [7]: no chemical reaction
side effects of massive acute overdosage [8]: without any serious side effects
antiviral activity [9]: active against a broad spectrum of DNA viruses
antiviral activity ([9]; listed as Ara-A): in some cases to be effective against Herpes simplex virus

C[S+](C)[O-] [DMSO, dimethyl sulfoxide]
skin irritation at 70% DMSO [10]: usually non-irritating to normal skin
toxicity [11]: essentially nontoxic
skin reaction to undiluted DMSO [12]: sometimes may cause an itching or burning sensation with redness or rash

CN(C)C1C(=O)C(C(N)=O)=C(O)C2(O)C(=O)C3=C(O)c4c(O)cccc4C(C)(O)C3CC12 (centres unmarked) [tetracycline]
effectiveness in topical treatment of acne [1]: effective in the topical treatment of acne
help in the management of acne [2]: help in the management of acne

Cn1nnnc1SCC1=C(C(=O)O)N2C(=O)[C@@H](NC(=O)[C@H](O)c3ccccc3)[C@H]2SC1 [cefamandole]
effectiveness in topical treatment of acne [1]: effective in the topical treatment of acne

CCOC(=O)c1ccc(N)cc1 [benzocaine]
deleterious effect on the patient [13]: Nor does the benzocaine appear to have any deleterious effect on the patient
influence of benzocaine on effectiveness of the medication [14]: does not impair the effectiveness of the medication
